Assay results from US10858369B2, “Pseudopolymorphic forms of a HIV protease inhibitor” (Janssen Sciences Ireland Unlimited Company, priority 2002, dated 2020).
Converted amounts (≈) assume the structure as drawn.

Columns and labels:
[1] = Aqueous solubility in solvents with different pH (excess solute equilibrated at 20° C., UV spectrometry); format: physicochemical
Method: Further solubility investigations were performed in function of pH. […] An excess of the solute was equilibrated with the solvent at 20° C. for at least 24 hours. After removing the undissolved compound, the concentration in solution was determined using UV spectrometry.
Aqueous solubilities of Form B were measured in solvents with different pH. An excess of the solute was equilibrated with the solvent at 20° C. for at least 24 hours. After removing the undissolved compound, the concentration in solution was determined using UV spectrometry.
Aqueous solubilities of Form K were measured in solvents with different pH. An excess of the solute was equilibrated with the solvent at 20° C. for at least 48 hours. After removing the undissolved compound, the concentration in solution was determined using UV spectrometry.

[2] = Adsorption-Desorption tests (vapor sorption, weight change with respect to atmospheric humidity, 25° C.); format: physicochemical
Method: drying temperature: 40° C.
equilibrium: ≤0.05% in 5 min. or 60 min.
data interval: 0.05% or 2 min.
At the drying step about 0.6% weight loss was registered.
About 21 mg of Form K were transferred into a VTI vapor sorption analyzer model SGA100 and the weight change with respect to the atmospheric humidity was recorded at the following conditions:
drying temperature: 30° C.
data interval: 0.05% or 2.0 min.
Form K is hygroscopic. […] Form K adsorbed up to 1.5% water at high relative humidity.
A different study of the adsorption and desorption of water by Form K at 25° C. at different conditions of relative humidity was investigated on an amount of about 18 mg of the mesylate solvate. The weight change as a function of relative humidity was registered.

[3] = Approximate solubility in different solvents at approximate 23° C.; format: physicochemical; conditions: thermodynamic from solid
[4] = Solubility in function of HPβCD (hydroxpropyl-β-cyclodextrin); format: physicochemical; conditions: 2 days at 20° C.
Method: An excess of product was equilibrated with the solvent during 2 days at 20° C. After removing the undissolved compound, the concentration in solution was determined using UV spectrometry.

[5] = Thermogravimetry of Form A, before and after Adsorption/Desorption tests, and at 25° C. under dry nitrogen; format: physicochemical
Method: The TG curve was recorded on a TA Instrument Hi-Res TGA 2950 thermogravimeter at the following conditions:
initial temperature: room temperature
final condition: 300° C. or <80[(w/w) %]
The loss of weight at temperatures up to 80° C. is mainly due to the evaporation of solvent (water) present in the sample. The loss of weight at temperatures above 80° C. is mainly due to the evaporation of solvent (ethanolate) present in the sample.
The loss of weight at 25° C. after 10 hours was around 0.6%. This was due to the evaporation of solvent.

[6] = Adsorption-Desorption Hydratation Tests; format: physicochemical; conditions: 25° C., RH cycle repeated 11 times
Method: equilibrium: ≤0.0005% in 5 min. or 90 min.
data interval: 0.05% or 2 min
cycle RH (%) adsorption/desorption: 5.95 repeat the cycle 11 times
At the end of this test a loss of weight of 5.2% was registered. […] The ADS/DES hydratation test curves are collected in FIG. 19.

[7] = Randomized, placebo-controlled, double-blind, multiple dose escalation trial: safety, tolerability and pharmacokinetics after oral administration
[8] = Fractions of Form B characterized with TG, DSC and IR; format: physicochemical; parameters: key to IR: ~Hydrate, Ref: ~hydrate, Ref: identical with reference
Description: Different fractions of Form B were characterized with thermogravimetry (TG), differential scanning calorimetry (DSC) and infrared spectroscopy (IR).

[9] = different study, about 18 mg, 25° C., FIG. 26
[10] = initial drying step (drying temperature 40° C. Form A, 30° C. Form K)

With `CC(C)CN(C[C@@H](O)[C@H](Cc1ccccc1)NC(=O)O[C@H]1CO[C@H]2OCC[C@H]21)S(=O)(=O)c1ccc(N)cc1` [Form K, (3R,3aS,6aR)-hexahydrofuro [2,3-b] furan-3-yl (1S,2R)-3-[[(4-aminophenyl)sulfonyl] (isobutyl)amino]-1-benzyl-2-hydroxypropylcarbamate] the solubility ([1]; 20% HPβCD in water (pH 1.6), at least 48 hours) was 2100 (pH 1.6) mg/100 ml solution, the solubility thermodynamic ([1]; pH 2, aqueous buffer, 0.01N HCl (pH 2.0), at least 48 hours) was 240 µg/mL (≈ 0.438 mM) and the solubility thermodynamic ([1]; pH 2, aqueous buffer, Buffer pH 2 (citrate/HCl) (pH 2.0), at least 48 hours) was 210 µg/mL (≈ 0.383 mM). For the same molecule, the solubility thermodynamic ([1]; pH 3, aqueous buffer, Buffer pH 3 (citrate/HCl) (pH 3.0), at least 48 hours) was 120 µg/mL (≈ 0.219 mM), the solubility thermodynamic ([1]; pH 3.3, water, Water (pH 3.3), at least 48 hours) was 190 µg/mL (≈ 0.347 mM) and the solubility thermodynamic ([1]; pH 4, aqueous buffer, Buffer pH 4 (citrate/HCl) (pH 4.0), at least 48 hours) was 110 µg/mL (≈ 0.201 mM). For the same molecule, the hygroscopicity ([2]; 25° C.) was “hygroscopic”, the “drying of the product during the desorption cycle” value ([2]; 25° C., about 21 mg, FIG. 25) was “dried completely” and the “weight loss at the drying step” value ([2]; different study, about 18 mg of the mesylate solvate, FIG. 26) was “about 0.6%”. For the same molecule, the “drying of the product during the desorption cycle” value [2, 9] was “dried completely”, the hygroscopicity [2, 9] was “slightly hygroscopic” and the “weight loss at the drying step” value [2, 10] was 0.3%.
With `CC(C)CN(C[C@@H](O)[C@H](Cc1ccccc1)NC(=O)O[C@H]1CO[C@H]2OCC[C@H]21)S(=O)(=O)c1ccc(N)cc1` [Form A, (3R,3aS,6aR)-hexahydrofuro [2,3-b] furan-3-yl (1S,2R)-3-[[(4-aminophenyl)sulfonyl] (isobutyl)amino]-1-benzyl-2-hydroxypropylcarbamate] the solubility ([3]; organic solvent or mixture, 1-Methoxy-2-propanol) was 160000 to 213000 µg/mL (≈ 292 to 389 mM), the solubility ([3]; organic solvent or mixture, 2-Propanol) was less than 3400 µg/mL and the solubility ([3]; organic solvent or mixture, Acetone) was 106000 to 211000 µg/mL (≈ 194 to 385 mM). The solubility ([3]; organic solvent or mixture, Dichloromethane) was 105000 to 209000 µg/mL (≈ 192 to 382 mM), the solubility ([3]; organic solvent or mixture, Ethanol absolute) was less than 3400 µg/mL and the solubility ([3]; organic solvent or mixture, Ethylacetate) was 71000 to 107000 µg/mL (≈ 130 to 195 mM). The solubility ([3]; organic solvent or mixture, Ethylmethylketone) was 102000 to 204000 µg/mL (≈ 186 to 372 mM), the solubility ([3]; organic solvent or mixture, Heptane) was less than 3400 µg/mL and the solubility ([3]; organic solvent or mixture, Isopropylether) was less than 3400 µg/mL. The solubility ([3]; organic solvent or mixture, Methacyanate) was greater than 200000 µg/mL, the solubility ([3]; organic solvent or mixture, Methanol) was less than 3400 µg/mL and the solubility ([3]; organic solvent or mixture, Tetrahydrofurane) was 102000 to 203000 µg/mL (≈ 186 to 371 mM). For the same molecule, the solubility ([3]; organic solvent or mixture, Toluene) was less than 3500 µg/mL, the solubility ([3]; water) was less than 3500 µg/mL and the solubility ([1]; Water (pH 5.9), at least 24 hours) was 16 (pH 5.9) mg/100 ml solution. For the same molecule, the solubility thermodynamic ([1]; pH 0.2, aqueous buffer, 1.0N HCl (pH 0.2), at least 24 hours) was 6200 µg/mL (≈ 11.3 mM), the solubility thermodynamic ([1]; pH 1.1, aqueous buffer, 0.1N HCl (pH 1.1), at least 24 hours) was 830 µg/mL (≈ 1.52 mM) and the solubility thermodynamic ([1]; pH 2, aqueous buffer, Buffer pH 2 (citrate/HCl) (pH 2.0), at least 24 hours) was 180 µg/mL (≈ 0.329 mM). The solubility thermodynamic ([1]; pH 2.1, aqueous buffer, 0.01N HCl (pH 2.1), at least 24 hours) was 180 µg/mL (≈ 0.329 mM), the solubility thermodynamic ([1]; pH 3, aqueous buffer, Buffer pH 3 (citrate/HCl) (pH 3.0), at least 24 hours) was 100 µg/mL (≈ 0.183 mM) and the solubility thermodynamic ([1]; pH 4, aqueous buffer, Buffer pH 4 (citrate/HCl) (pH 4.0), at least 24 hours) was 90 µg/mL (≈ 0.164 mM). For the same molecule, the solubility ([4]; 5% HPβCD in water (pH = 5.8)) was 2.4 (pH = 5.8) mg/ml solution, the solubility ([4]; 10% HPβCD in water (pH = 6.0)) was 6.5 (pH = 6.0) mg/ml solution and the solubility ([4]; 20% HPβCD in water (pH = 6.0)) was 17 (pH = 6.0) mg/ml solution. The solubility ([4]; 40% HPβCD in water (pH = 5.9)) was 40 (pH = 5.9) mg/ml solution, the solubility ([4]; Water (pH = 5.9)) was 0.16 (pH = 5.9) mg/ml solution and the “loss of weight (TG)” value ([5]; 25° C. under dry nitrogen atmosphere, after 10 hours) was “around 0.6%”. For the same molecule, the “TG (% weight change) >80° C.” value ([5]; Form A as such) was 7.1%, the “TG (% weight change) Up to 80° C.” value ([5]; Form A as such) was 0.3% and the “TG (% weight change) >80° C.” value ([5]; after A/D hydratation test) was 0.5%. The “TG (% weight change) Up to 80° C.” value ([5]; after A/D hydratation test) was 5.4%, the “TG (% weight change) >80° C.” value ([5]; after ADS/DES) was 4.0% and the “TG (% weight change) Up to 80° C.” value ([5]; after ADS/DES) was 2.9%. The hygroscopicity ([2]; 25° C.) was “not hygroscopic”, the “loss of weight during the desorption cycle” value ([2]; 25° C.) was 1.4% and the “obtained product after ADS/DES” value ([2]; 25° C.) was “mixture of ethanolate form and hydrated form”. For the same molecule, the “weight loss at the drying step” value [2, 10] was “about 0.6%”, the “form after the hydratation test” value [6] was “transferred into a hydrated form” and the “loss of weight at the end of the test” value [6] was 5.2%. The “unchanged Form A excreted in the urine” value ([7]; all dose levels) was “Less than 2%”, the “time to reach steady-state plasma concentrations” value ([7]; oral, repeated dosing b.i.d. or t.i.d., healthy subjects) was no more than 3 days and the “dose-proportionality of Cmax (maximum conc.)” value ([7]; with respect to dose per intake) was “dose-proportional”.
In the case of `CC(C)CN(C[C@@H](O)[C@H](Cc1ccccc1)NC(=O)OC1CO[C@H]2OCC[C@@H]12)S(=O)(=O)c1ccc(N)cc1` (single isomer, unassigned) [Form B fraction 1], the IR ([8]; after ADS/DES) is reported as “±Hydrate,”, the “TG % weight change <100° C.” value ([8]; after ADS/DES) is reported as 4.30% and the “DSC Max (° C.)” value ([8]; fraction as such) is reported as 69.1 °C. The IR ([8]; fraction as such) was “Hydrate, Ref” and the “TG % weight change <100° C.” value ([8]; fraction as such) was 5.65%.
For `CC(C)CN(C[C@@H](O)[C@H](Cc1ccccc1)NC(=O)O[C@H]1CO[C@H]2OCC[C@H]21)S(=O)(=O)c1ccc(N)cc1` [Form B, (3R,3aS,6aR)-hexahydrofuro [2,3-b] furan-3-yl (1S,2R)-3-[[(4-aminophenyl)sulfonyl] (isobutyl)amino]-1-benzyl-2-hydroxypropylcarbamate], the solubility ([1]; 0.1N HCl (pH 1.1), at least 24 hours) was 150 (pH 1.1) mg/100 ml solution, the solubility ([1]; Buffer pH 2 (citrate/HCl) (pH 2.0), at least 24 hours) was 23 (pH 2.0) mg/100 ml solution and the solubility ([1]; Buffer pH 3 (citrate/HCl) (pH 3.0), at least 24 hours) was 13 (pH 3.0) mg/100 ml solution. For the same molecule, the solubility ([1]; Buffer pH 4 (citrate/HCl) (pH 4.0), at least 24 hours) was 12 (pH 4.0) mg/100 ml solution, the solubility thermodynamic ([1]; pH 0.14, aqueous buffer, 1.0N HCl (pH 0.14), at least 24 hours) was 5100 µg/mL (≈ 9.31 mM) and the solubility thermodynamic ([1]; pH 5.1, water, Water (pH 5.1), at least 24 hours) was 100 µg/mL (≈ 0.183 mM). For the same molecule, the hygroscopicity ([2]; 25° C.) was “hygroscopic”, the “obtained product after ADS/DES” value ([2]; 25° C.) was “mixture of hydrate and amorphous product” and the “water remained on the sample after the desorption cycle” value ([2]; 25° C.) was “about 1.2%”. For the same molecule, the “weight loss at the drying step” value [2, 10] was “about 5.6%”.
In the case of `CC(C)CN(C[C@@H](O)[C@H](Cc1ccccc1)NC(=O)OC1CO[C@H]2OCC[C@@H]12)S(=O)(=O)c1ccc(N)cc1` (single isomer, unassigned) [Form B fraction 2], the “DSC Max (° C.)” value ([8]; after 5 d 40° C./75% RH) is reported as 74.1 °C, the IR ([8]; after 5 d 40° C./75% RH) is reported as “~Hydrate, Ref” and the “TG % weight change <100° C.” value ([8]; after 5 d 40° C./75% RH) is reported as 3.56%. The “DSC Max (° C.)” value ([8]; fraction as such) was 75.6 °C, the IR ([8]; fraction as such) was “~Hydrate, Ref” and the “TG % weight change <100° C.” value ([8]; fraction as such) was 5.91%.
In the case of `CC(C)CN(C[C@@H](O)[C@H](Cc1ccccc1)NC(=O)OC1CO[C@H]2OCC[C@@H]12)S(=O)(=O)c1ccc(N)cc1` (single isomer, unassigned) [Form B fraction 3], the “DSC Extra (° C.)” value ([8]; after 5 d 40° C./75% RH) is reported as 62.8 °C, the “DSC Max (° C.)” value ([8]; after 5 d 40° C./75% RH) is reported as 77.4 °C and the IR ([8]; after 5 d 40° C./75% RH) is reported as “±Hydrate,”. For the same molecule, the “TG % weight change <100° C.” value ([8]; after 5 d 40° C./75% RH) was 2.33%, the “DSC Extra (° C.)” value ([8]; fraction as such) was 67.8 °C and the “DSC Max (° C.)” value ([8]; fraction as such) was 77.0 °C. The IR ([8]; fraction as such) was “±Hydrate,” and the “TG % weight change <100° C.” value ([8]; fraction as such) was 3.13%.
